The source of these data is patent US5688793A, “Pyridazino[4',5':3,4]pyrrolo-[2,1-a]-isoquinolines and the use thereof for preparing pharmaceutical preparations” (Boehringer Ingelheim GmbH, priority 1993, dated 1997).

Each structure is given as a SMILES string.

The test system of assay [1] is unselective cation channels (UCC). The assay can be described thus: Thapsigargin-stimulated calcium entry through unselective cation channels in fura-2-charged RBL-hm 1 cells. The assay is classed as cell-based, rat. The conditions noted are these: 10^-5 M test substance, Thapsigargin (0.1 μM) stimulation. The procedure:
For screening purposes, fura-2-charged adhesive RBL-hm 1 cells are stimulated with […] Thapsigargin in a Ca^2+ -free incubation medium. After 4 minutes, extracellular Ca^2+ is restored to a concentration of 1.5 mM and, using the fura-2-fluorescence, the excessive increase in the cytoplasmic Ca^2+ -concentration caused by a massive transmembranal Ca^2+ -entry through unselective cation channels is recorded.
The fluorometric calcium measurement in the cytoplasm of individual adhering RBL-hm1 cells is carried out analogously to the method described by KUDO and OGURA (1986) for neuronal cells. An AXIOVERT 35 fluorescence microscope made by ZEISS is used in conjunction with an imaging system made by HAMAMATSU, consisting of the ICMS-image processing system, residual light camera with control unit and image intensifier DVS 3000.
The kinetics of the cytoplasmic Ca^2+ -concentration is recorded continuously as a concentration/time curve after the cell activation stimulated by Thapsigargin (0.1 μM). […] The area under these curves (area under the curve=AUC) is integrated and recorded as a measurement of cell activation. The inhibitory potency of the UCC-blockers tested is determined using the following equation: [formula] […]
AUC control=area under the curve which is recorded only after the addition of the stimulant.
The percentage inhibition of UCC after Thapsigargin stimulation (0.1 μM Thapsigargin) in RBL-hm 1 cells is given. […]

Assay [2] concerns RBL-2H3-cells. The assay can be described thus: Antigen (DNP-BSA)-induced activation of sensitised RBL-2H3 cells, fluorometric cytoplasmic calcium measurement. The assay is classed as cell-based. The note with it: Rattus norvegicus, read-out: inhibition of the antigen-induced cell activation. The procedure: Individual RBL-2H3-cells (a turnout cell line related to the mast cells) adhering to glass slides are used.
The cultivation and attachment of the RBL-2H3-cells are carried out by the method described by HIDE and BEAVEN (1991). In order to sensitise the adhesive RBL-2H3-cells the cells are incubated for 2 hours at ambient temperature with a 1:2000 diluted commercial gammaglobulin E-solution against a dinitrophenol-bovine serum albumin complex (DNP-BSA-antigen). The cells are then washed. By the addition of 0.1 ml of DNP-BSA-solution (10 μg/ml) there is a massive immunological cell activation which is mediated by a cytoplasmic Ca^2+ -overload. The fluorometric calcium measurement in the cytoplasm of individual adhering RBL-2H3-cells is carried out analogously to the method described by KUDO and OGURA (1986) for neuronal cells, which is also explained hereinbefore in this specification.
The comparison used in these investigations is (10 μM) chromoglycate which brings about an approximately 50% inhibition of the antigen-induced cell activation.

For `COc1cc2c(cc1OC)-c1c3cnnc(SCCCCOc4ccccc4F)c3cn1CC2`, the “% H (10^-5 M), percentage inhibition of the calcium entry through unselective cation channels” value in assay [1] came out at 61.6%. Turning to `COc1cc2c(cc1OC)-c1c3cnnc(SCc4ccc(Br)cc4)c3cn1CC2`, in assay [1], the “% H (10^-5 M), percentage inhibition of the calcium entry through unselective cation channels” value is reported as 62.9%. On the same count and under the same terms, the result for `COc1cc2c(cc1OC)-c1c3cnnc(SCc4cccc(Cl)c4)c3cn1CC2` reads 81.9%; that for `COc1cc2c(cc1OC)-c1c3cnnc(SCc4ccc(F)cc4)c3cn1CC2`, 94.6%.

Regarding `COc1cc2c(cc1OC)-c1c3cnnc(SCc4ccccc4)c3cn1CC2`, in assay [1], the “% H (10^-5 M), percentage inhibition of the calcium entry through unselective cation channels” value is 97.5%.

Consider `COc1cc2c(cc1OC)-c1c3cnnc(OC)c3cn1CC2` [CH3 (X:O), 5,6-Dihydro-2,3,9-trimethoxypyridazino[4',5':3,4]-pyrrolo[2,1-a]isoquinoline], for which the “% H (10^-5 M), percentage inhibition of the calcium entry through unselective cation channels” value in assay [1] is recorded as 62.5%. Same read-out and setting: the result for `COc1cc2c(cc1OC)-c1c3cnnc(SC)c3cn1CC2` [CH3 (X:S), reference compound] reads 46.4%. With `O=C(O)c1cc(=O)c2c(OCC(O)COc3cccc4oc(C(=O)O)cc(=O)c34)cccc2o1` [chromoglycate], the inhibition (usually the percentage by which the read-out fell short of the control) at 10 µM in assay [2] was around 50%.
